These results are taken from patent US20260207711A1, “FORMULATIONS, DEVICES AND METHODS FOR A GLP-1 AGONIST” (Nano Precision Medical, Inc., priority 2023, published 2026).

This data set is described as follows: Stability of the formulation remaining in terminated devices (purity, remaining concentration, mass balance by HPLC). Type of data set: physicochemical. Particulars: over 77 days; starting purity of semaglutide as received 94%. The source says: Each trace in the figure represents a separate measurement of a separate vial. At the end of the time period devices were terminated, disassembled and the internal compositions measured.
The mass balance numbers indicate that no appreciable amount of drug was lost in the form of degradants undetectable by HPLC, such a fibrils.
[…] Purities were […].

As to semaglutide, the “total loss in purity” value is 7-8%.
